We go through six compounds from patent publication US6723741B2, “Benzimidazoles and benzothiazoles and uses thereof” (Synaptic Pharmaceutical Corporation, priority 1996, dated 2004).

Structures are written as SMILES. Read-outs that look alike come from different tables or passages of the source.

For test [1], the target named is T1, human α1B adrenergic receptor (Homo sapiens, UniProt P35368).
T1 construct: The entire coding region of α1B (1563 bp); expressed in transfected cells
T1 sequence (P35368 1-520): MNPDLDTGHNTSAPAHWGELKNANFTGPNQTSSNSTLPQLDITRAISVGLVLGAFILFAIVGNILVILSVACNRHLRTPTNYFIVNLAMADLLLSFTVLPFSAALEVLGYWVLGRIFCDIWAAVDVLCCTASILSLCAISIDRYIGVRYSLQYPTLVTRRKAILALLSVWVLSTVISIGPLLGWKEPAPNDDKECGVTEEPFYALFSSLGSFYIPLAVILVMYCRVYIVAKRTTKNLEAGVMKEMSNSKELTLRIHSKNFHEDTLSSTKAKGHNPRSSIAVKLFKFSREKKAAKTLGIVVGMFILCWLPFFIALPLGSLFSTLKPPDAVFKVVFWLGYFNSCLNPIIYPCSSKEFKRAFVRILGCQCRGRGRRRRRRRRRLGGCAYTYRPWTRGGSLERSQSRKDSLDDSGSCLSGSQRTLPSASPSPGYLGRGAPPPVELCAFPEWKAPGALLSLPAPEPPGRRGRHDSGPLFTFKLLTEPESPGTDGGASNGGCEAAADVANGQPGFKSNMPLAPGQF
Description: Radioligand binding assay, [3H]prazosin competition.

For test [2], the target named is T2, human α1C adrenergic receptor (Homo sapiens, UniProt P35348).
T2 construct: expressed in transfected cells
T2 sequence (P35348 1-466): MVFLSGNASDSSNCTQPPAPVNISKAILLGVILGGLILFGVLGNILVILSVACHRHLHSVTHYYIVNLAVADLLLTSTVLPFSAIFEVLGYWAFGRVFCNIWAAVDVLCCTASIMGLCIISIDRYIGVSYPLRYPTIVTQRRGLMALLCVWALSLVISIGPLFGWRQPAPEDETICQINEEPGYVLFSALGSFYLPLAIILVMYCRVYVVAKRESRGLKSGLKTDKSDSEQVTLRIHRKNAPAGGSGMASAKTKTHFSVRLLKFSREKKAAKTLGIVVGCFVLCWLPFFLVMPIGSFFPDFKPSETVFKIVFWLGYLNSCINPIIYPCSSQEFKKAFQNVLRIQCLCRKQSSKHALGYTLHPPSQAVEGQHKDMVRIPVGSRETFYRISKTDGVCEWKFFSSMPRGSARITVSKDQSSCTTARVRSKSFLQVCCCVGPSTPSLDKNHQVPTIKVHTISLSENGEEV
The test is described as above. The conditions noted are these: cloned human α1C (old nomenclature; = α1A), LM(tk-) cell membranes, read-out: pKi Alpha-1 C (converted). As for the experimental part: Equilibrium competition binding assays were performed with membrane preparations from cultured LM(tk^−) cells stably transfected with the cloned human alpha adrenoreceptor subtypes except for α2b, which was expressed in Y-1 cells, using [^3H] prazosin for α1 receptors and [^3H] rauwolscine for α2 receptors. Further details of pharmacological evaluations of claimed compounds are described in Example 21.
The cloned human alpha-1 adrenergic receptor subtypes referred to throughout this application as α1A, α1B, and α1C have recently been assigned new subtype designations by the IUPHAR Nomenclature Committee as outlined in the 1995 Receptor and Ion Channel Nomenclature Supplement (Watson and Girdlestone, 1995). In the new nomenclature system the cloned human α1A receptor referred to herein was given the appellation “α1D,” while the cloned human α1C receptor referred to herein was given the appellation “α1A”. However, throughout this application and the supporting tables and figures the old nomenclature will be used to describe the cloned human alpha-1 adrenergic receptor subtypes. The old nomenclature is used throughout this application because stable cell lines expressing the cloned human alpha-1 adrenergic receptors were produced and deposited with the ATCC according to the Budapest Treaty for the Deposit of Microorganisms, under designations assigned before the nomenclature change.
The entire coding region of α1C (1401 bp), including 400 basepairs of 5′ untranslated sequence (5′ UT) and 200 p of 3′ untranslated sequences (3′ UT), was cloned into the KpnI site of the polylinker-modified pCEXV-3-derived eukaryotic expression vector, EXJ.RH. The construct involved ligation three partial overlapping fragments: a 5′ 0.6 kb HincII genomic clone, a central 1.8 EcoRI hippocampal cDNA clone, and a 3′ 0.6 Kb PstI genomic clone. The hippocampal cDNA fragment overlaps with the 5′ and 3′ genomic clones so that the HincII nad PstI sites at the 5′ and 3′ ends of the cDNA clone, respectively, were utilized for ligation. This full-length clone was cloned into the KpnI site of the expression vector, using the 5′ and 3′ KpnI sites of the fragment, derived from vector (i.e., pBluescript) and 3′-untranslated sequences, respectively. Stable cell lines were produced and selected as described above.
Transfected cells from culture flasks were scraped into 5 mL of 5 mM Tris-HCl, 5 mM EDTA, pH 7.5, and lysed by sonication. The cell lysates were centrifuged at 1000 rpm for 5 min at 4° C., and the supernatant was centrifuged at 30,000×g for 20 min at 4° C. The pellet was suspended in 50 mM Tris-HCl, 1 mM MgCl2, and 0.1% Ascorbic acid at pH 7.5. Binding of α2 antagonist [^3H] rauwolscine ([…]) to membrane preparations of LM(tk−) cells was done in a final volume of 0.25 mL and incubated at 37° C. for 20 min. Nonspecific binding was determined in the presence of 10 μM phentolamine. The reaction was stopped by filtration through GF/B filters using a cell harvester.

Setting [3] is: cloned human α1B, LM(tk-) cell membranes, [3H]prazosin, read-out: pKi Alpha-1 B (converted).

Take `Brc1cc(NC2=NCCN2)cc2cc[nH]c12` [Example 2, 7-Bromo-5-(2-imidazolin-2-ylamino)indole]: the Ki is 26.9 nM in test [1] (setting [3]) and 19.1 nM in test [2].

On to `N#Cc1cc(NC2=NCCN2)cc2cc[nH]c12` [Example 5, 7-Cyano-5-(2-imidazolin-2-ylamino)indole], for which the Ki is 12600 nM in test [1] (setting [3]) and 1450 nM in test [2].

In the case of `CC(=O)c1cc(NC2=NCCN2)cc2cc[nH]c12` [Example 6, 7-Acetyl-5-(2-imidazolin-2-ylamino)indole], the values for the Ki in test [1] (setting [3]) and in test [2] were 56.2 nM and 186 nM, respectively.

Take `c1nc2cc(NC3=NCCN3)ccc2s1` [Example 13, 5-(2-Imidazolin-2-ylamino)benzothiazole]: the Ki in test [1] (setting [3]) and in test [2] was 708 nM in each case.

On to `c1nc2ccc(NC3=NCCN3)cc2s1` [Example 14, 6-(2-Imidazolin-2-ylamino)benzothiazole], for which the values for the Ki in test [1] and in test [2] were 3630 nM and 2340 nM, respectively.

`c1nc2ccc(NC3=NCCS3)cc2s1` [Example 15, 6-(2-Thiazolin-2-ylamino)benzothiazole]: the results for the Ki in test [1] and in test [2] were 7240 nM and 5750 nM, respectively.
